From ChEMBL document CHEMBL1649078, “Novel antiviral C5-substituted pyrimidine acyclic nucleoside phosphonates selected as human thymidylate kinase substrates” (J Med Chem, 2011) come the findings set out here.

Data set [1] is described as follows: (§1) Displacement of Mant-ATP from human recombinant UCK by fluorescence competition assay. Particulars: read-out: Kd(app).
For data set [2], the species on record is Homo sapiens. The data set can be described thus: Binding affinity to human recombinant UCK ATP binding site.
The species entered for data set [3] is Homo sapiens. The data set can be described thus: Activity at human recombinant UCK by Michaelis-Menten equation analysis.
For data set [4], the target named is Thymidine kinase 2, mitochondrial (Homo sapiens) (UniProt O00142). The data set can be described thus: Inhibition of human recombinant TK2-mediated thymidine phosphorylation ar 0.3 mM.
Data set [5] in a line: Inhibition of human recombinant UCK by Double reciprocal plot analysis.
The species entered for data set [6] is Homo sapiens. The data set can be described thus: Binding affinity to human recombinant UCK dCMP binding site.
Data set [7] deals with Thymidine kinase, cytosolic (Homo sapiens) (UniProt P04183). The data set can be described thus: Inhibition of human recombinant TK1-mediated thymidine phosphorylation ar 0.3 mM.
The species named for data set [8] is Homo sapiens. The data set can be described thus: Displacement of MABA-CDP from human recombinant UCK by fluorescence competition assay.
The species named for data set [9] is Homo sapiens. Described as §1.
For data set [10], the species on record is Homo sapiens. The data set can be described thus: Binding affinity to human recombinant UCK by circular dichroism analysis. For orientation: CD spectra are sensitive to the conformation of chiral molecules.
Data set [11] concerns Human alphaherpesvirus 3. The data set can be described thus: Antiviral activity against thymidine kinase-deficient VZV 07/1 infected in human HEL cells assessed as reduction of virus-induced cytopathogenicity after 5 days. The format is functional, organism-based. Conditions: Human alphaherpesvirus 3, 07/1, HEL, 120 h. A general note: Protection from cytopathic effect is a common read-out in antiviral testing.

For a further data set, the system named is Human betaherpesvirus 5. The data set can be described thus: Antiviral activity against HCMV AD169/Davis infected in human HEL cells assessed as reduction of virus-induced cytopathogenicity after 7 days. Particulars: Human betaherpesvirus 5, AD169/Davis, 168 h. The format is functional, organism-based.
Data set [12] deals with Human alphaherpesvirus 1. The data set can be described thus: Antiviral activity against HSV1 KOS infected in human HEL cells assessed as reduction of virus-induced cytopathogenicity after 7 days. In kind it is functional, organism-based. Particulars: Human alphaherpesvirus 1, KOS, 168 h.
The nature of data set [13]: Cytotoxicity against human HEL cells after 3 days. In kind it is cell-based.
The subject of data set [14] is Human alphaherpesvirus 3. The data set can be described thus: Antiviral activity against VZV OKA expressing thymidine kinase infected in human HEL cells assessed as reduction of virus-induced cytopathogenicity after 5 days. The format is functional, organism-based. Particulars: Human alphaherpesvirus 3, OKA, 120 h.
The subject of a further data set is Human alphaherpesvirus 2. The data set can be described thus: Antiviral activity against HSV2 G infected in human HEL cells assessed as reduction of virus-induced cytopathogenicity after 7 days. Particulars: Human alphaherpesvirus 2, strain G, 168 h. The format is functional, organism-based.
The subject of data set [15] is Human alphaherpesvirus 1. The data set can be described thus: Antiviral activity against acyclovir-resistant thymidine kinase deficient HSV1 KOS infected in human HEL cells assessed as reduction of virus-induced cytopathogenicity after 7 days. Particulars: Human alphaherpesvirus 1, KOS, 168 h. The format is functional, organism-based.
Substrate in data set [16]: Cc1cn(C/C=C/CP(=O)(O)O)c(=O)[nH]c1=O
The data set can be described thus: (§2) Activity at human recombinant TMPK by Michaelis-Menten equation analysis.

Substrate in data set [17]: O=c1[nH]c(=O)n([C@H]2C[C@H](O)[C@@H](COP(=O)(O)O)O2)cc1Br
The description is as §2.

Substrate in data set [18]: Cc1cn([C@H]2C[C@H](O)[C@@H](COP(=O)(O)O)O2)c(=O)[nH]c1=O
The data set is described as §2.

Substrate in data set [19]: O=c1[nH]c(=O)n(C/C=C/CCP(=O)(O)O)cc1Cl
The description is as §2.

Substrate in data set [20]: O=c1[nH]c(=O)n(C/C=C/CCP(=O)(O)O)cc1Br
The description is as §2.

Substrate in data set [21]: O=c1[nH]c(=O)n(C/C=C/CP(=O)(O)O)cc1Br
The data set is described as §2.

Substrate in data set [22]: O=c1[nH]c(=O)n(C/C=C/CCP(=O)(O)O)cc1F
The description is as §2.

Substrate in data set [23]: Cc1cn(C/C=C/CCP(=O)(O)O)c(=O)[nH]c1=O
Described as §2.

Substrate in data set [24]: O=c1ccn(C/C=C/CP(=O)(O)O)c(=O)[nH]1
The description is as §2.

Substrate in data set [25]: Cc1cn(C/C=C/P(=O)(O)O)c(=O)[nH]c1=O
The description is as §2.

Substrate in data set [26]: O=c1ccn(C/C=C/CCP(=O)(O)O)c(=O)[nH]1
Described as §2.

Substrate in data set [27]: O=c1ccn([C@H]2C[C@H](O)[C@@H](COP(=O)(O)O)O2)c(=O)[nH]1
Described as §2.

Substrate in data set [28]: O=c1[nH]c(=O)n(C/C=C/CP(=O)(O)O)cc1F
The description is as §2.

Substrate in data set [29]: O=c1[nH]c(=O)n(C/C=C/CP(=O)(O)O)cc1Cl
The description is as §2.

Substrate in data set [30]: Cc1cn(C/C=C/CP(=O)(O)O)c(=O)[nH]c1=O
The data set can be described thus: (§3) Ratio of kcat/km for human recombinant TMPK by Michaelis-Menten equation analysis.

Substrate in data set [31]: O=c1[nH]c(=O)n([C@H]2C[C@H](O)[C@@H](COP(=O)(O)O)O2)cc1Br
Described as §3.

Substrate in data set [32]: Cc1cn([C@H]2C[C@H](O)[C@@H](COP(=O)(O)O)O2)c(=O)[nH]c1=O
The description is as §3.

Substrate in data set [33]: O=c1[nH]c(=O)n(C/C=C/CCP(=O)(O)O)cc1Cl
The description is as §3.

Substrate in data set [34]: Cc1cn([C@H]2C[C@H](N=[N+]=[N-])[C@@H](COP(=O)(O)O)O2)c(=O)[nH]c1=O
The data set is described as §3.

Substrate in data set [35]: O=c1[nH]c(=O)n(C/C=C/CCP(=O)(O)O)cc1Br
Described as §3.

Substrate in data set [36]: O=c1[nH]c(=O)n(C/C=C/CP(=O)(O)O)cc1Br
The data set is described as §3.

Substrate in data set [37]: O=c1[nH]c(=O)n(C/C=C/P(=O)(O)O)cc1Cl
The description is as §3.

Substrate in data set [38]: O=c1[nH]c(=O)n(C/C=C/CCP(=O)(O)O)cc1F
The data set is described as §3.

Substrate in data set [39]: Cc1cn(C/C=C/CCP(=O)(O)O)c(=O)[nH]c1=O
The description is as §3.

Substrate in data set [40]: O=c1ccn(C/C=C/CP(=O)(O)O)c(=O)[nH]1
The description is as §3.

Substrate in data set [41]: Cc1cn(C/C=C/P(=O)(O)O)c(=O)[nH]c1=O
The data set is described as §3.

Substrate in data set [42]: O=c1ccn(C/C=C/CCP(=O)(O)O)c(=O)[nH]1
Described as §3.

Substrate in data set [43]: O=c1ccn([C@H]2C[C@H](O)[C@@H](COP(=O)(O)O)O2)c(=O)[nH]1
Described as §3.

Substrate in data set [44]: O=c1[nH]c(=O)n(C/C=C/CP(=O)(O)O)cc1F
The description is as §3.

Substrate in data set [45]: O=c1[nH]c(=O)n(C/C=C/CP(=O)(O)O)cc1Cl
The description is as §3.

For orientation: inhibition means the relative decrease from the control value, in per cent. As a reminder, the Ki is the equilibrium dissociation constant of an inhibitor or competing ligand from its target. The EC50 is the concentration at which the effect is half-maximal. Broadly, the CC50 is the concentration giving 50% cytotoxicity. The low end stands for harm at low concentration, the high end for better tolerance by the cells. In general, Km refers to the concentration of substrate that gives half-maximal velocity. The term kcat denotes the maximal rate divided by the concentration of active sites. Broadly, the kcat/Km is the turnover number divided by the Michaelis constant.

The source made the active and inactive calls.

Thymidine kinase 2, mitochondrial (Homo sapiens), sequence (O00142 whole entry): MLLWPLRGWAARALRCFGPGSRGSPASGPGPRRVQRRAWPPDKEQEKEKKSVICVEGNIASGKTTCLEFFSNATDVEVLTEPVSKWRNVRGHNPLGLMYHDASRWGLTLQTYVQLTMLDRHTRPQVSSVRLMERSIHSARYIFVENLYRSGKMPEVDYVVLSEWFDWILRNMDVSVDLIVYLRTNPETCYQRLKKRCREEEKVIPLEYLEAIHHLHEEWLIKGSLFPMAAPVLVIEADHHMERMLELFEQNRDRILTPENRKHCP
Thymidine kinase, cytosolic (Homo sapiens), sequence (P04183 whole entry): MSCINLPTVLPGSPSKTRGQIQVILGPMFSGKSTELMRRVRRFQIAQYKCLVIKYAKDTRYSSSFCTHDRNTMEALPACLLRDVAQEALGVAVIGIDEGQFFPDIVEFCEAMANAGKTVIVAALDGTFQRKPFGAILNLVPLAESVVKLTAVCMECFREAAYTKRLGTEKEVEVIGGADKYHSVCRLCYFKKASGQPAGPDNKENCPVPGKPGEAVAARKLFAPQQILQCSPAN

Turning to `O=c1[nH]c(=O)n(C/C=C/CP(=O)(O)O)cc1Cl`, in data set [1], the Kd is 170 µM. Besides, the outcome in the data set filed under Homo sapiens [2] and in the data set filed under Homo sapiens [6] was Active. For the same molecule, the outcome in the data set filed under Homo sapiens [3] and in the data set filed under Homo sapiens [8] was inactive. The inhibition in [4] and in data set [7] was 15% in each case. Moreover, the Ki in [5] worked out at 250 µM.
On to `Nc1ncnc2c1ncn2CCOCP(=O)(O)O`, for which, in the data set listed under Homo sapiens [9], the result was inactive.
In the case of `Nc1ccn([C@H]2C[C@H](O)[C@@H](COP(=O)(O)O)O2)c(=O)n1`, in the data set listed under Homo sapiens [10], the outcome was inactive.
For `Nc1ccn(C[C@@H](CO)OCP(=O)(O)O)c(=O)n1` [CIDOFOVIR], the EC50 in the data set with Human alphaherpesvirus 3 [11] is 0.07 µM; in the data set on Human betaherpesvirus 5, 1.2 µM; in the data set with Human alphaherpesvirus 1 [12], 3.5 µM; in the data set on Human alphaherpesvirus 3 [14], 0.044 µM; in the data set on Human alphaherpesvirus 2, 2 µM; in the data set with Human alphaherpesvirus 1 [15], 2.5 µM. Also, in data set [13], it took 280 µM to reach half-maximal cytotoxicity (CC50 at 72 h). This molecule also had an MCC at 72 h in [13] above 250 µM. Further, the outcome in the data set filed under Homo sapiens [9] and in the data set filed under Homo sapiens [10] was inactive.
As for `C[C@H](Cn1cnc2c(N)ncnc21)OCP(=O)(O)O`, the result in the data set filed under Homo sapiens [9] was inactive.
For the molecule `Cc1cn(C/C=C/CP(=O)(O)O)c(=O)[nH]c1=O`, the result in the data set listed under Homo sapiens [3] and in the data set listed under Homo sapiens [8] was inactive. For the same molecule, the inhibitory constant (Ki) in data set [5] was found to be 1200 µM.
In the case of `CC(C)(C)C(=O)OCOP(=O)(C/C=C/Cn1cc(Br)c(=O)[nH]c1=O)OCOC(=O)C(C)(C)C`, the EC50 with Human alphaherpesvirus 3 [11] was 15 µM; in the data set with Human betaherpesvirus 5, above 40 µM; in the data set with Human alphaherpesvirus 1 [12], 20 µM; in the data set with Human alphaherpesvirus 3 [14] it was 20 µM; in the data set on Human alphaherpesvirus 2, 16 µM; in the data set on Human alphaherpesvirus 1 [15], 19 µM. In data set [13], this molecule yielded a CC50 at 72 h of 34 µM. Besides, the MCC at 72 h in data set [13] was 200 µM. For the same molecule, the result in the data set listed under Homo sapiens [3] and in the data set listed under Homo sapiens [8] was inactive.
Turning to `Cc1cn(C/C=C\CP(=O)(OCOC(=O)C(C)(C)C)OCOC(=O)C(C)(C)C)c(=O)[nH]c1=O`, the concentration for a half-maximal effect (EC50) is above 40 µM with Human alphaherpesvirus 3 [11]; above 200 µM in the data set with Human betaherpesvirus 5; above 40 µM in the data set on Human alphaherpesvirus 1 [12]; above 40 µM with Human alphaherpesvirus 3 [14]; above 40 µM in the data set on Human alphaherpesvirus 2; above 40 µM in the data set on Human alphaherpesvirus 1 [15]. The same molecule yielded a CC50 at 72 h in [13] of 35 µM. This molecule gave an MCC at 72 h in data set [13] of at least 200 µM. Also, the outcome in the data set filed under Homo sapiens [3] and in the data set filed under Homo sapiens [8] was inactive.

B1: Thymidylate kinase (Homo sapiens), P23919 (protein)
chain: MAARRGALIVLEGVDRAGKSTQSRKLVEALCAAGHRAELLRFPERSTEIGKLLSSYLQKKSDVEDHSVHLLFSANRWEQVPLIKEKLSQGVTLVVDRYAFSGVAFTGAKENFSLDWCKQPDVGLPKPDLVLFLQLQLADAAKRGAFGHERYENGAFQERALRCFHQLMKDTTLNWKMVDASKSIEAVHEDIRVLSEDAIRTATEKPLGELWK
Turning to B1, the Km was determined as 24 µM in data set [16]; 10 µM in data set [17]; 20 µM in [18]; 150 µM in [19]; 160 µM in [20]; 20 µM in data set [21]. The Km in data set [22] came out at 1900 µM; in [23], 100 µM; in data set [24] it was 1700 µM; in [25], 1000 µM; in data set [26], 2500 µM; in data set [27], 170 µM. Also, the Km in data set [28] came out at 1000 µM; in data set [29], 130 µM. The turnover number (kcat) in data set [16] was 0.84 s⁻¹; in data set [17] it was 1.2 s⁻¹; in data set [18], 3 s⁻¹; in [19] it was 0.1 s⁻¹; in [20], 0.058 s⁻¹; in [21], 0.9 s⁻¹. For the same molecule, the kcat amounted to 0.09 s⁻¹ in data set [22]; 0.32 s⁻¹ in data set [23]; 0.48 s⁻¹ in [24]; 0.6 s⁻¹ in [25]; 0.074 s⁻¹ in [26]; 4.8 s⁻¹ in [27]. Moreover, the kcat was 0.73 s⁻¹ in [28] and 0.5 s⁻¹ in data set [29]. Also, the kcat/Km in data set [30] is 35000 M⁻¹ s⁻¹; in data set [31] it was 120000 M⁻¹ s⁻¹; in [32] it was 150000 M⁻¹ s⁻¹; in data set [33], 660 M⁻¹ s⁻¹; in [34] it was 1000 M⁻¹ s⁻¹; in data set [35] it was 360 M⁻¹ s⁻¹. In addition, the kcat/Km in [36] was 45000 M⁻¹ s⁻¹; in [37] it was 80 M⁻¹ s⁻¹; in data set [38], 47 M⁻¹ s⁻¹; in data set [39], 3200 M⁻¹ s⁻¹; in data set [40], 280 M⁻¹ s⁻¹; in data set [41], 600 M⁻¹ s⁻¹. Also, the specificity constant (kcat/Km) is 30 M⁻¹ s⁻¹ in data set [42], 28000 M⁻¹ s⁻¹ in [43], 730 M⁻¹ s⁻¹ in data set [44] and 4100 M⁻¹ s⁻¹ in data set [45].
